Assay results published in patent US20120022121A1, “INDOLES, DERIVATIVES AND ANALOGS THEREOF AND USES THEREFOR” (priority 2007, published 2012).

Assays:
[1] = system: HT-29; assay: Cell viability SRB assay, 96 h; type: cell-based; conditions: Homo sapiens, HT-29, 96 h
Outline: (§1)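 Cells seeded at 800-5,000 cells/well in medium with 10% FBS, treated in quadruplicate with compound at 0 to 100 μM (DMSO <0.5% v/v) against vehicle controls. Incubated 96 hour at 37° C, 5% CO2, then stained with sulforhodamine B to quantitate viability.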

[2] = system: MCF-7; assay: Cell viability SRB assay, 96 h; type: cell-based; conditions: Homo sapiens, MCF7; MCF-7, 96 h
Outline: as §1

[3] = system: LNCaP cells; assay: Cell cycle distribution (PI staining, FACS); type: cell-based, human; conditions: LNCaP cells, 0, 50, 100 and 200 nM, 24 h
Experimental: LNCaP cells were treated with 0, 50, 100 and 200 nM of compound 13 for 24 h (FIG. 11A). Cells were then harvested and fixed with 70% ethanol. Cell cycle distribution was determined by propidium iodide (P1) staining and analyzed by fluorescence-activated cell sorting (FACS) analysis.

[4] = system: CV-1; assay: Cell viability SRB assay, 96 h; type: cell-based; conditions: Cercopithecidae, CV-1 fibroblast cell line
Experimental: Cells were plated in 96-well plates at a density of 800-5,000 cells/well, depending on the cell line, in their required growth media containing 10% fetal bovine serum. Preliminary studies were performed with each cell line using a variety of cell densities and incubation times to determine appropriate seeding densities. The compound of interest was dissolved in DMSO, diluted in cell culture medium (final DMSO concentration was less than 0.5% v/v), and added to quadruplicate wells at final concentrations ranging from 0 to 100 μM. Control wells to which only drug-free vehicle was added were included as negative controls.
Cells were incubated for 96 hour at 37° C. in a humidified atmosphere containing 5% carbon dioxide.

[5] = system: PC-3 xenograft; assay: Antitumor activity in PC-3 xenograft; type: in vivo, Balb/c mice; conditions: 50, 100, or 150 mg/kg/d, 5 days on/2 days off
Experimental: PC-3 tumor cells (2×10^6 cells) were suspended in saline and injected S.C. in both flanks of recipient mice (n=15). Tumor size was measured every other day and volume calculated as V=π/6*(length)x(width)^2 (75). […] Tumor growth and body weight was monitored every other day for the remainder of the study.

[6] = system: MDR cell lines with high levels of P-gp, MRP1, MRP2, or BCRP; assay: Cytotoxicity assay using MDR cell lines; type: cell-based, human; conditions: MRP1, MRP2, BCRP over-expressing cells
Text: (§2) MTT (3-(4,5-dimethylthiazol-2-yl)-2,5-diphenyltetrazolium bromide) assay was also used for the leukemia cell lines. […] Cells were stained with SRB solution or MTT solution.
Since ABC transporters are thought to be one of the major causes of MDR of anticancer drugs, the antitumoral efficacy of 68 was compared with other anticancer drugs in a cytotoxicity assay using MDR cell lines with high levels of P-gp, MRP1, MRP2, or BCRP (Table 1). […] In contrast, the cytotoxicity efficacy of 68 against cancer cells was unaltered by the MDR phenotypes.

[7] = system: MES-SA; assay: Growth inhibition assay (96 h); type: cell-based; conditions: Homo sapiens, MES-SA (parental)
Text: as §2

[8] = system: HEK293-482R2; assay: Growth inhibition assay (96 h); type: cell-based, human
[9] = system: HEK293-pcDNA3-10; assay: Growth inhibition assay (96 h); type: cell-based, human; conditions: Homo sapiens, HEK293-pcDNA3-10 (control for BCRP)
Text: as §2

[10] = system: PC-3 xenografts; assay: In vivo antitumor efficacy, PC-3 xenograft; conditions: for tumor growth inhibition: PC-3 xenograft, 2 days/week, 4 weeks
[11] = system: cyclin B1, Cdc25C, Cdc2; assay: Western blot of G2-M regulators; type: cell-based, human; conditions: PC-3 cells, 24 h treatment
Experimental: Treated cells were lysed in cold lysis buffer (20 mM Tris-HCl, pH 7.5, 150 mM NaCl, 1 mM Na2 EDTA, 1% Triton x-100, and freshly added Na3VO4 (2 mM), NaF (20 mM) and complete protease inhibitor cocktail). For each sample, an aliquot (20 to 40 μg) of total protein was loaded and run on a SDS-Page gel. Protein was transferred to nitrocellulose membranes (Bio-Rad Laboratories, Hercules, Calif.), blocked with 5% non-fat milk, incubated with primary antibody overnight at 4° C., and then incubated with secondary antibody at rt for 1 h. ECL™ (GE Healthcare Bio-Sciences Corp., Piscataway, N.J.) was used for detection. The band intensity was measured by densitometry using TotalLab TL100 Software v2006 (Nonlinear Dynamics Ltd., Newcastle upon Tyne, UK).

[12] = system: PC-3 cells; assay: Indirect immunofluorescence microscopy of microtubules; type: cell-based, human; conditions: 24 h, anti-α-tubulin-FITC
Experimental: PC-3 cells were plated on poly-D-lysine coated glass cover slips in 6-well plates (5×10^4 cells/well) the day before treatment. After cells were incubated with cytotoxic agents at 37° C. for 24 h, cells were fixed on the cover slips with 4% formaldehyde in PBS for 10 min and permeabilized by 2% Triton-X in PBS for 5 min at rt. Fixed cells were blocked with 3% bovine serum albumin in TBST for 30 min and incubated with anti-α-tubulin-FITC antibody (1:100 dilution) at 4° C. overnight. Cover slips were mounted on slides using mounting medium with 4′,6-diamidino-2-phenylindole (DAPI), followed by microscopic analysis with a Zeiss Axioplan 2 fluorescent microscope (Carl Zeiss, Thornwood, N.Y.). Images were acquired with a Zeiss Axiocam HRc, using Zeiss AxioVision.

## O=C(c1cccc(-c2cc3ccccc3[nH]2)c1)c1cc2ccccc2[nH]1 [Compound 13, (1H-indol-2-yl)-[3-(1H-indol-2-yl)phenyl]methanone]
[1]
  IC50: 62 nM
[2]
  IC50: 162 nM
[3]
  cell cycle arrest: induces G2/M phase arrest
[4]
  IC50: 78.3 ± 35 nM
[5]
  tumor growth: suppressed tumor growth in a dose-dependent manner

## COc1cc(C(=O)c2cccc(-c3cc4ccccc4[nH]3)c2)cc(OC)c1OC [Compound 68, [3-(1H-Indol-2-yl)-phenyl]-(3,4,5-trimethoxy-phenyl)-methanone]
[6]
  cytotoxicity efficacy against cancer cells with MDR phenotypes: unaltered
[7]
  IC50: 31.5 ± 2.9 nM
[8]; HEK293-482R2 (BCRP) vs HEK293-pcDNA3-10
  resistance factor (ratio of IC50 resistant subline to parental cell line): (1.0)
[8]; Homo sapiens, HEK293-482R2, BCRP over-expressed, 96 h
  IC50: 13.6 ± 1.3 nM
[9]
  IC50: 13.5 ± 1.6 nM
[10]; PC-3 xenograft mice, 5 and 10 mg/kg twice weekly
  tolerability: well tolerated
[10]; 5 mg/kg i.p.
  tumor growth inhibition: 36%
[10]; 10 mg/kg i.p.
  tumor growth inhibition: 68%
[11]
  concentration at which cyclin B1 accumulation, Cdc25C (Ser216) and Cdc2 dephosphorylation were observed: higher than 50 nM

## CC[C@]1(O)C[C@@H]2CN(CCc3c([nH]c4ccccc34)[C@@](C(=O)OC)(c3cc4c(cc3OC)N(C)[C@H]3[C@@](O)(C(=O)OC)[C@H](OC(C)=O)[C@]5(CC)C=CCN6CC[C@]43[C@@H]65)C2)C1 [Vinblastine]
[12]
  microtubule changes by immunofluorescence: short microtubules
